pIC50: −log10 of the molar value. Several values for one entry are separate records, joined by “and”; a condition that tells them apart may be missing. Equal values may be shown once.
Tested on: NCI-H211 complex spheroid viability
Assay: Anticancer human tumor NCI-H211 cell line growth inhibition [LSD1];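 further: luminescent viability read after seven days of drug exposure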;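 on viability, T/C: 100% = DMSO vehicle control viability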
Conditions: for viability, T/C: stronger effect = lower value
Text: Multicellular complex tumor spheroid response to LSD1 Inhibitor Iadademstat in combination with a variety of drugs and investigational agents in selected tumor cell lines
The current study was undertaken to assess response to LSD1 inhibitors in combination with standard-of-care drugs and investigational agents in solid tumor complex spheroid models as well as in the K-562 leukemia. Complex spheroids include a stromal component modeled by human endothelial cells (HUVEC) and fibroblasts modeled by human mesenchymal stem cells (MSCs). The concentration ranges selected for each drug and investigational agent were based upon clinically achievable concentrations if the clinical Cmax of the agent was known.
Compounds. The drugs and investigational agents used in this study are listed on Table 1. All of the agents used, including staurosporine (NSC755774) and gemcitabine (NSC613327), were obtained from the Developmental Therapeutics Program, NCI. FDA-approved anticancer drugs are available from the NCI at http://dtp.nci.nih.gov/branches/dscb/oncology_drugset_explanation.html. Drugs and investigational agents were >95% pure by proton nuclear magnetic resonance (NMR) and liquid chromatography/mass spectrometry (LC/MS). Stock solutions were prepared at 400x in DMSO, stored at -70 degrees C, and diluted in fresh medium prior to their use. The final concentration of DMSO in cell culture wells never exceeded 0.25% (v/v). The FDA-approved anticancer drug set is available from the Developmental Therapeutics Program at https://dtp.cancer.gov/organization/dscb/obtaining/available_plates.htm. All drugs and investigational agents were tested over a range starting from a high concentration at or near the clinical Cmax and decreasing in half-log increments. If the clinical Cmax for an agent had not been determined, the highest concentration tested was 10 microM.
Cell Lines. The patient-derived cancer cell (PDC) lines: 292921-168-R-J2-PDC, K24384-001-R-PDC, and 521955-158-R2-J5-PDC pancreatic carcinomas, 556581-035-R-J1 ovarian carcinoma, 324938-238-R-J1-PDC, 855422-203-R-J1-PDC and 883617-216-R-J1-PDC urothelial bladder carcinomas, 743489-274-T-PDC renal cell carcinoma, 138582-R-J1 Merkel cell tumor, K60290-347-R-J1 and K57222-313-R-J1-PDC glioblastomas, 653999-131-R-J2-PDC, LG0703-F948-PDC, and 349418-098-R-PDC non-small cell lung carcinomas, 885512-296-R-J2-PDC, 171881-019-R-J1-PDC breast carcinomas and 186277-243-T-J2-PDC and 233499-124-R-J2-PDC colon carcinomas were obtained from the NCI Patient-Derived Models Repository (PDMR, https://pdmr.cancer.gov). The established cell lines NCI/ADR-RES (RRID:CVCL_14520 and OVCAR-5 (RRID:CVCL_1628) ovarian carcinomas, 786-O (RRID:CVCL_1051) and A498 (RRID:CVCL_A498) renal cell carcinoma, NCI-H211 (ATCC, cat. CRL-5824; RRID:CVCL_1529), NCI-H196 (ATCC, cat. CRL-5823, RRID:CVCL_1509), SW 1271 (ATCC, cat. CRL-2177, RRID:CVCL_1716) and NCI-H1876 (ATCC, cat. CRL-5902, RRID:CVCL_1503) small cell lung carcinomas, MDA-MB-231 (RRID:CVCL_0062) and MDA-MB-468 (RRID:CVCL_0419)breast carcinomas (10-12). Pooled donor human umbilical vein endothelial cells (HUVEC, Lonza, cat. CC-2519) and human mesenchymal stem cells (hMSC, Lonza, cat. PT-2501) were purchased from Lonza (Walkersville, MD).
Cell Culture. All cells were maintained in an incubator at 37 degrees C and 5% CO2 with 95% humidity. The PDC lines were cultured according to standard operating procedures established by the NCI PDMR (https://pdmr.cancer.gov). Briefly all PDCs were thawed and cultured in Matrigel-coated flasks prepared with a working solution of 1X Ham's F-12 nutrient mix, without supplementation (Invitrogen, Waltham, MA, cat. 11765054), 100 U/mL penicillin-streptomycin (Invitrogen, cat. 15140122), and 2.5% Matrigel (Corning Inc., Corning, NY, cat. 354248) for the first three passages. […]

Q: `CC[C@@]1(O)C(=O)OCc2c1cc1n(c2=O)Cc2cc3c(CN(C)C)c(O)ccc3nc2-1` + NC1CC1c1ccc(-c2cccc(O)c2)cc1 was tested. Which pIC50 (curve of first compound, second compound 0.1 µM) did it give?
A: 9.33

Q: And the pIC50 (curve of first compound, second compound 0.316 µM)?
A: 9.40

Q: What about the pIC50 (curve of first compound, second compound 1 µM) of the same compound?
A: 9.48

Q: What about the pIC50 (curve of first compound, second compound 3.16 µM) of the same compound?
A: > 9.50

Q: What about the pIC50 (curve of first compound, second compound 10 µM) of the same compound?
A: > 9.50

Q: And the viability, T/C (second compound 0.1 µM, first compound 0.000316 µM)?
A: 69.9%

Q: And the viability, T/C (second compound 0.1 µM, first compound 0.001 µM)?
A: 12.8%

Q: What about the viability, T/C (second compound 0.1 µM, first compound 0.00316 µM) of the same compound?
A: 4.7%

Q: What about the viability, T/C (second compound 0.1 µM, first compound 0.01 µM) of the same compound?
A: 4.95%

Q: What about the viability, T/C (second compound 0.1 µM, first compound 0.0316 µM) of the same compound?
A: 3.81%

Q: What about the viability, T/C (second compound 0.1 µM, first compound 0.1 µM) of the same compound?
A: 2.69%

Q: What about the viability, T/C (second compound 0.316 µM, first compound 0.000316 µM) of the same compound?
A: 60%

Q: What about the viability, T/C (second compound 0.316 µM, first compound 0.001 µM) of the same compound?
A: 12%

Q: And the viability, T/C (second compound 0.316 µM, first compound 0.00316 µM)?
A: 6.18%

Q: What about the viability, T/C (second compound 0.316 µM, first compound 0.01 µM) of the same compound?
A: 4.37%

Q: What about the viability, T/C (second compound 0.316 µM, first compound 0.0316 µM) of the same compound?
A: 4.53%

Q: And the viability, T/C (second compound 0.316 µM, first compound 0.1 µM)?
A: 2.25%

Q: What about the viability, T/C (second compound 1 µM, first compound 0.000316 µM) of the same compound?
A: 51.9%

Q: And the viability, T/C (second compound 1 µM, first compound 0.001 µM)?
A: 11.9%

Q: What about the viability, T/C (second compound 1 µM, first compound 0.00316 µM) of the same compound?
A: 5.4%

Q: And the viability, T/C (second compound 1 µM, first compound 0.01 µM)?
A: 3.69%

Q: And the viability, T/C (second compound 1 µM, first compound 0.0316 µM)?
A: 4.13%

Q: What about the viability, T/C (second compound 1 µM, first compound 0.1 µM) of the same compound?
A: 3.19%

Q: And the viability, T/C (second compound 3.16 µM, first compound 0.000316 µM)?
A: 38.7%

Q: And the viability, T/C (second compound 3.16 µM, first compound 0.001 µM)?
A: 11.8%

Q: And the viability, T/C (second compound 3.16 µM, first compound 0.00316 µM)?
A: 5.33%

Q: And the viability, T/C (second compound 3.16 µM, first compound 0.01 µM)?
A: 5.16%

Q: What about the viability, T/C (second compound 3.16 µM, first compound 0.0316 µM) of the same compound?
A: 5.02%

Q: What about the viability, T/C (second compound 3.16 µM, first compound 0.1 µM) of the same compound?
A: 2.67%

Q: And the viability, T/C (second compound 10 µM, first compound 0.000316 µM)?
A: 44.5%

Q: What about the viability, T/C (second compound 10 µM, first compound 0.001 µM) of the same compound?
A: 15.3%

Q: What about the viability, T/C (second compound 10 µM, first compound 0.00316 µM) of the same compound?
A: 4.98%

Q: And the viability, T/C (second compound 10 µM, first compound 0.01 µM)?
A: 5.88%

Q: And the viability, T/C (second compound 10 µM, first compound 0.0316 µM)?
A: 5.04%

Q: What about the viability, T/C (second compound 10 µM, first compound 0.1 µM) of the same compound?
A: 2.36%

Q: How did the viability, T/C (compound 0.316 µM) turn out when `NC1CCC(NC2CC2c2ccccc2)CC1` (stereo unspecified) was run?
A: 74.9% [middle of 4 runs]

Q: And the viability, T/C (compound 10 µM)?
A: 36.1% [middle of 23 runs]

Q: Which results are given for `CCN(c1cc(-c2ccc(CN3CCOCC3)cc2)cc(C(=O)NCc2c(C)cc(C)[nH]c2=O)c1C)C1CCOCC1`?
A: viability, T/C (compound 0.00949 µM): 122% and 86.1%; viability, T/C (compound 0.03 µM): 108% and 75.3%; viability, T/C (compound 0.0949 µM): 100% and 68.3%; viability, T/C (compound 0.3 µM): 97.3% and 54.6%; viability, T/C (compound 0.949 µM): 96.4% and 52.2%; viability, T/C (compound 3 µM): 93.8% and 47.7%; pIC50 (curve of compound): < 5.52 and 5.86

Q: How did the viability, T/C (compound 0.000949 µM) turn out when `Nc1ccn(C2OC(CO)C(O)C2(F)F)c(=O)n1` (stereo unspecified) was run?
A: 2.49% and 5.54%

Q: What about the viability, T/C (compound 0.003 µM) of the same compound?
A: 2.72% and 4.15%

Q: And the viability, T/C (compound 0.00949 µM)?
A: 7.87% and 4.04%

Q: What about the viability, T/C (compound 0.03 µM) of the same compound?
A: 2.08% and 4.19%

Q: What about the viability, T/C (compound 0.0949 µM) of the same compound?
A: 2.85% and 4.27%

Q: And the viability, T/C (compound 0.3 µM)?
A: 2.42% and 5%

Q: What about the pIC50 (curve of compound) of the same compound?
A: > 9.02

— PubChem BioAssay AID1918940 (Molecular Pharmacology Branch, DTP, NCI, 2023)
